Data taken from patent publication US7067517B2 (priority 2001, dated 2006).
Where a name gives a salt, the structure may show the parent alone.

SMILES | melting point
O=C(Oc1ccc(Oc2ccc(C(F)(F)F)cn2)cc1)N1CCN(Cc2ccccc2)CC1 (as salt: hydrochloride) | 229 to 231 °C
O=C(Oc1ccc(Oc2ccc(C(F)(F)F)cn2)cc1)N1CCN(C2CCCC2)CC1 (as salt: hydrochloride) | 294 to 295 °C
O=C(Oc1ccc(Oc2ccc(C(F)(F)F)cn2)cc1)N1CCN(Cc2c(F)cccc2Cl)CC1 (as salt: hydrochloride) | 204 to 205 °C
O=C(Oc1ccc(Oc2ccc(C(F)(F)F)cn2)cc1)N1CCN(Cc2ccccn2)CC1 (as salt: hydrochloride) | 189 to 190 °C
O=C(Oc1ccc(Oc2ccc(C(F)(F)F)cn2)cc1)N1CCN(Cc2cccc(F)c2)CC1 (as salt: hydrochloride) | 138 to 139 °C
O=C(Oc1ccc(Oc2ccc(C(F)(F)F)cn2)cc1)N1CCN(c2ccccn2)CC1 (as salt: hydrochloride) | 247 to 248 °C
O=C(CN1CCN(C(=O)Oc2ccc(Oc3ccc(C(F)(F)F)cn3)cc2)CC1)N1CCCC1 (as salt: hydrochloride) | 224 °C
O=C(Oc1ccc(Oc2ccc(C(F)(F)F)cn2)cc1)N1CCN(c2ccc(F)cc2)CC1 (as salt: hydrochloride) | 131 to 132 °C
O=C(Oc1ccc(Oc2ccc(C(F)(F)F)cn2)cc1)N1CCN(Cc2ccc3c(c2)OCO3)CC1 (as salt: hydrochloride) | 239 to 240 °C
O=C(Oc1ccc(Oc2ccc(C(F)(F)F)cn2)cc1)N1CCN(c2ncccc2C(F)(F)F)CC1 | 131 to 132 °C
O=C(Oc1ccc(Oc2ccc(C(F)(F)F)cn2)cc1)N1CCN(CCO)CC1 (as salt: hydrochloride) | 255 °C
O=C(Oc1ccc(Oc2ccc(C(F)(F)F)cn2)cc1)N1CCN(c2cnccn2)CC1 | 160 to 161 °C
O=C(Oc1ccc(Oc2ccc(C(F)(F)F)cc2)cc1)N1CCN(CCOCCO)CC1 (as salt: hydrochloride) | 176 to 178 °C
O=C(Oc1ccc(Oc2ccc(C(F)(F)F)cn2)cc1)N1CCN(CCc2ccncc2)CC1 (as salt: hydrochloride) | 268 to 271 °C (dec.)
O=C(Oc1ccc(Oc2ncc(C(F)(F)F)cc2Cl)cc1)N1CCN(Cc2ccccc2)CC1 (as salt: hydrochloride) | 111 to 113 °C
CC(C)(C)c1ccc(CN2CCN(C(=O)Oc3ccc(Oc4ccc(C(F)(F)F)cn4)cc3)CC2)cc1 (as salt: hydrochloride) | 274 to 275 °C
O=C(Oc1ccc(Oc2ccc(C(F)(F)F)cn2)cc1)N1CCN(c2ccc(Cl)c(Cl)c2)CC1 | 115 to 116 °C
Cc1cc(C)nc(Sc2ccc(OC(=O)N3CCN(Cc4cccc(F)c4)CC3)cc2)n1 | 117 to 118 °C

Results, then the molecule that gave them:

melting point | SMILES
120 to 121 °C | O=C(Oc1ccc(Oc2ccc(C(F)(F)F)cn2)cc1)N1CCN(c2ncccn2)CC1
240 to 243 °C | O=C(Oc1ccc(Oc2ccc(C(F)(F)F)cn2)cc1)N1CCN(Cc2ccc(F)cc2)CC1 (as salt: hydrochloride)
185 to 186 °C | Cc1c(Cc2ccc(F)cc2)c(=O)oc2cc(OC(=O)N(C)c3ccccc3)ccc12
236 to 237 °C | O=C(Oc1ccc(Oc2ccc(C(F)(F)F)cn2)cc1)N1CCN(CCc2cccs2)CC1 (as salt: hydrochloride)
290 to 291 °C | O=C(Oc1ccc(Oc2ccc(C(F)(F)F)cc2)cc1)N1CCN(C2CCCCC2)CC1 (as salt: hydrochloride)
221 to 222 °C | CCCCN1CCN(C(=O)Oc2ccc(Oc3ccc(C(F)(F)F)cn3)cc2)CC1 (as salt: hydrochloride)
63 to 67 °C | CN(C(=O)On1cccn1)c1ccccc1
168 to 171 °C | COc1cccc(N2CCN(C(=O)Oc3ccc(Oc4ccc(C(F)(F)F)cc4)cc3)CC2)c1 (as salt: hydrochloride)
146 to 147 °C | O=C(Oc1ccc(Oc2ccc(C(F)(F)F)cn2)cc1)N1CCN(c2ccc3c(c2)OCO3)CC1
98 to 99 °C | COc1ccc(N2CCN(C(=O)Oc3ccc(Oc4ccc(C(F)(F)F)cn4)cc3)CC2)c(OC)c1
